Experimental data: patent US9090549B2, “1,4-naphthoquinones derivatives and therapeutic use thereof” (CENTRE NATIONAL DE LA RECHERCHE SCIENTIFIQUE (C.N.R.S.), priority 2008, dated 2015)
Where two headings read alike, the source gives them in different places.

How the values were obtained:
[1] = system: Pf-GHA; assay: Pf-GHA growth inhibition, colorimetric NBT-based lactate dehydrogenase assay; assay type: cell-based; conditions: Plasmodium falciparum, read-out: IC50 against Pf-GHA
Method: The IC50 values against Pf-GHA and MRC-5 were determined by using the less sensitive colorimetric NBT-based lactate dehydrogenase assay (Makler et al, Am. J. Trop. Med. Hyg. 1993, 48 (6), 739-741) based on redox-reactions.
In Vitro Antiparasitic Bioassays. The strain is maintained in RPMI-1640 medium supplemented with 0.37 mM hypoxanthine, 25 mM HEPES, 25 mM NaHCO3, and 10% O^+ human serum together with 2-4% washed human O^+ erythrocytes. All cultures and assays are conducted under an atmosphere of 4% CO2, 3% O2 and 93% N2. Assays are performed in 96-well microtiter plates, each well containing 10 μL of the watery compound dilutions together with 190 μL of the malaria parasite inoculum (1% parasitaemia, 2% HCT). After 72 h incubation, plates are frozen and stored at −20° C. After thawing, 20 μL of each well is transferred into another plate together with 100 μL Malstat reagent and 20 μL of 1/1 mixture of PES (phenazine ethosulfate, 0.1 mg/mL) and NBT (Nitro Blue Tetrazolium Grade III, 2 mg/mL). Change in colour is measured spectrophotometrically at 655 nm. The results are expressed as % reduction in parasitaemia compared to control wells. Compounds are treated at 5 concentrations (64-16-4-1 and 0.25 μM or μg/mL).

[2] = system: P. falciparum multidrug-resistant strain Dd2; assay: Dd2 growth inhibition, 3H-hypoxanthine assay; assay type: cell-based, Plasmodium falciparum; conditions: for IC50: Plasmodium falciparum, DD2, 48 h exposure then 24 h hypoxanthine, read-out: IC50 against Dd2
Method: The IC50 was tested by standard in vitro antiproliferation assays (Desjardins et al, 1979 Antimicrob. Agents Chemother 1979, 16, 710-718). Infected erythrocytes in ring stage (0.5% parasitemia, 2.5% hematocrit) in 96-well plates were exposed to the compounds for 48 h and then to radioactive hypoxanthine for 24 h. The amount of radioactivity in precipitable material served as an index of cell proliferation.

[3] = system: P. berghei ANKA; assay: In vivo 4-day suppressive test in P. berghei-infected mice; design: species or system Plasmodium berghei; conditions: intraperitoneal
Method: The in vivo tests in the mouse model were done according to a standard protocol (Peters et al Handbook of Animal Models of Infection; Academic Press, London, 1999; pp. 756-771). […] […] For administration, compounds were freshly prepared in 10% DMSO in sterile phosphate-buffered saline the day of use. Two hours post-infection mice received the first treatment by the intraperitoneal route. Mice were further treated on days +1-3. Blood films from tail blood were prepared on day +4, and parasitaemia was determined by microscopic examination of Giemsa-stained blood films. […] […] Mice were treated and levels of parasitemia determined as described.

Structure (SMILES)	melting point	other results
C[C@H]1[C@H](OC(=O)CCC(=O)O)O[C@@H]2O[C@@]3(C)CC[C@H]4[C@H](C)CC[C@@H]1[C@@]24OO3 [Artesunate, reference compound]	–	IC50 ([1]; 72 h): 5 nM
O=C1C=C(C(F)F)C(=O)c2ccccc21 [HB49, 2-Difluoromethyl-1,4-naphthoquinone]	74 °C	–
COc1c(C)c(C(O)c2ccc(Br)cc2)c(OC)c2ccccc12 (stereo not shown) [P_TM7, (4-Bromo-phenyl)-(1,4-dimethoxy-3-methyl-naphthalen-2-yl)-methanol]	67 to 68 °C	–
CC1=C(C(=O)c2ccc(C(=O)O)cc2)C(=O)C2C=CC=CC2C1=O (stereo not shown) [P_TM22, 4-(3-Methyl-1,4-dioxo-1,4,4a,8a-tetrahydro-naphthalene-2-carbonyl)-benzoic acid]	201 °C (dec.)	–
COC(=O)c1ccc(C(=O)C2=C(C)C(=O)c3ccccc3C2=O)cc1 [P_TM28, 4-(3-Methyl-1,4-dioxo-1,4-dihydro-naphthalene-2-carbonyl)-benzoic acid methyl ester]	162 °C	–
COc1ccccc1C(=O)C1=C(C)C(=O)C2C=CC=CC2C1=O (stereo not shown) [P_TM35, 2-Methyl-3-(2-methoxy-benzoyl)-4a,8a-dihydro-[1,4]naphthoquinone]	146 to 147 °C	–
CC1=C(C(=O)c2ccc(Cl)cc2)C(=O)C2C=CC=CC2C1=O (stereo not shown) [P_TM38, 2-Methyl-3-(4-chloro-benzoyl)-4a,8a-dihydro-[1,4]naphthoquinone]	–	IC50 ([1]; 72 h incubation): < 5000 nM
CC1=C(Cc2ccc(Br)cc2)C(=O)C2C(O)=CC=CC2C1=O (stereo not shown) [P_TM42, 3-(4-Bromo-benzyl)-5-hydroxy-2-methyl-4a,8a-dihydro-[1,4]naphthoquinone]	163 to 164 °C	IC50 ([1]; 72 h incubation): < 5000 nM
CC1=C(C(=O)c2ccc(C#N)cc2)C(=O)C2C=CC=CC2C1=O (stereo not shown) [P_TM46, 2-Methyl-3-(4-cyano-benzoyl)-4a,8a-dihydro-[1,4]naphthoquinone]	185 to 186 °C	IC50 ([1]; 72 h incubation): < 5000 nM
CC1=C(C(=O)c2ccc(C(C)(C)C)cc2)C(=O)C2C=CC=CC2C1=O (stereo not shown) [P_TM48, 2-Methyl-3-(4-tertbutyl-benzoyl)-4a,8a-dihydro-[1,4]naphthoquinone]	64 to 65 °C	–
CC1=C(Cc2ccc(C(=O)NCCC#N)cc2)C(=O)C2C=CC=CC2C1=O (stereo not shown) [P_TM53, N-(2-Cyano-ethyl)-4-(3-methyl-1,4-dioxo-1,4,4a,8a-tetrahydronaphthalen-2-ylmethyl)-benzamide]	131 to 132 °C	–
CC1=C(Cc2ccc(-c3ccc(C(C)(C)C)cc3)cc2)C(=O)c2ccccc2C1=O [P_TM66, 2-(4′-tert-Butyl-biphenyl-4-ylmethyl)-3-methyl-[1,4]naphthoquinone]	112 to 114 °C	IC50 ([1]; 72 h incubation): < 5000 nM
CCCCC(C1=C(C)C(=O)c2ccccc2C1=O)c1ccc(-c2ccc([N+](=O)[O-])cc2)cc1 (stereo not shown) [P_TM67, 2-(4′-nitro-Butyl-biphenyl-4-ylmethyl)-3-methyl-[1,4]naphthoquinone]	–	IC50 ([1]; 72 h incubation): < 5000 nM
COc1c(C)c(Cc2ccc(Cl)cc2)c(OC)c2ccccc12 [P_TM75, 2-(4-Chloro-benzyl)-1,4-dimethoxy-3-methyl-naphthalene]	101 to 102 °C	–
COc1c(C)c(Cc2ccc(N3CCN(Cc4ccc(C(C)(C)C)cc4)CC3)cc2)c(OC)c2ccccc12 [P_TM78, 1-(4-tert-Butyl-benzyl)-4-[4-(1,4-dimethoxy-3-methyl-naphthalen-2-ylmethyl)-phenyl]piperazine]	63 to 65 °C	–
CC1=C(Cc2ccc(C(C)(C)C)cc2)C(=O)c2c(O)cccc2C1=O [P_TM81, 3-(4-tert-Butyl-benzyl)-5-hydroxy-2-methyl-[1,4]naphthoquinone]	112 to 113 °C	IC50 ([1]; 72 h incubation): < 5000 nM
COc1cccc(CC2=C(C)C(=O)c3ccccc3C2=O)c1 [P_TM96, 2-(3-Methoxy-benzyl)-3-methyl-[1,4]naphthoquinone]	87 to 88 °C	–
O=C1C(Cc2ccc(Br)cc2)=C(C(F)F)C(=O)c2ccccc21 [P_TM101, 2-(4-Bromo-benzyl)-3-difluoromethyl-[1,4]naphthoquinone]	103 to 104 °C	–
O=C1C(O)=C([C@H]2CC[C@H](c3ccc(Cl)cc3)CC2)C(=O)c2ccccc21 [atovaquone, reference compound]	–	IC50 [2]: < 0.1 nM; IC50 ([1]; 72 h incubation): 310 nM

Second part, led by results:

melting point	Structure (SMILES)	other results
118 to 119 °C	CC1=C(Cc2ccc(F)cc2)C(=O)C2C=CC=CC2C1=O (stereo not shown) [P_TM26, 2-Methyl-3-(4-fluoro-benzyl)-4a,8a-dihydro-[1,4]naphthoquinone]	–
134 to 135 °C	CC1=C(Cc2ccc(Cl)cc2)C(=O)C2C=CC=CC2C1=O (stereo not shown) [P_TM30, 2-Methyl-3-(4-chloro-benzyl)-4a,8a-dihydro-[1,4]naphthoquinone]	IC50 [2]: < 100 nM; IC50 ([1]; 72 h incubation): < 5000 nM
112 to 113 °C	COc1ccc(CC2=C(C)C(=O)C3C=CC=CC3C2=O)cc1 (stereo not shown) [P_TM31, 2-Methyl-3-(4-methoxy-benzyl)-4a,8a-dihydro-[1,4]naphthoquinone]	IC50 [2]: < 100 nM
117 to 118 °C	COc1ccccc1CC1=C(C)C(=O)C2C=CC=CC2C1=O (stereo not shown) [P_TM32, 2-Methyl-3-(2-methoxy-benzyl)-4a,8a-dihydro-[1,4]naphthoquinone]	IC50 [2]: < 100 nM
156 to 157 °C	CC1=C(Cc2ccc([N+](=O)[O-])cc2)C(=O)C2C=CC=CC2C1=O (stereo not shown) [P_TM37, 2-Methyl-3-(4-nitro-benzyl)-4a,8a-dihydro-[1,4]naphthoquinone]	reduction in parasitaemia ([3]; daily dose of 30 mg/kg, 4-day test, mice): 42.4%; activity on 4-day treatment ([3]; P. berghei-infected mice): significant activity
159 to 160 °C	CC1=C(Cc2ccc(C#N)cc2)C(=O)C2C=CC=CC2C1=O (stereo not shown) [P_TM41, 2-Methyl-3-(4-cyano-benzyl)-4a,8a-dihydro-[1,4]naphthoquinone]	IC50 [2]: < 100 nM; IC50 ([1]; 72 h incubation): < 5000 nM
148 to 149 °C	CC1=C(Cc2ccc(NC(=O)OC(C)(C)C)cc2)C(=O)C2C=CC=CC2C1=O (stereo not shown) [P_TM45, [4-(3-Methyl-1,4-dioxo-1,4,4a,8a-tetrahydro-naphthalen-2-ylmethyl)-phenyl]-carbamic acid tert-butyl ester]	–
206 to 208 °C	CC1=C(Cc2ccc(C(=O)O)cc2)C(=O)C2C=CC=CC2C1=O (stereo not shown) [P_TM50, 4-(3-Methyl-1,4-dioxo-1,4,4a,8a-tetrahydro-naphthalen-2-ylmethyl)-benzoic acid]	–
102 to 103 °C	COc1ccc(CC2=C(C)C(=O)C3C=CC=CC3C2=O)cc1OC (stereo not shown) [P_TM54, 2-(3,4-Dimethoxy-benzyl)-3-methyl-4a,8a-dihydro-[1,4]naphthoquinone]	–
103 to 105 °C	COc1ccc(CC2=C(C)C(=O)C3C=CC=CC3C2=O)c(OC)c1 (stereo not shown) [P_TM56, 2-(2,4-Dimethoxy-benzyl)-3-methyl-4a,8a-dihydro-[1,4]naphthoquinone]	–
127 to 128 °C	COc1cc(CC2=C(C)C(=O)C3C=CC=CC3C2=O)cc(OC)c1 (stereo not shown) [P_TM58, 2-(3,5-Dimethoxy-benzyl)-3-methyl-4a,8a-dihydro-[1,4]naphthoquinone]	IC50 [2]: < 100 nM; IC50 ([1]; 72 h incubation): < 5000 nM
140 to 142 °C	COc1ccc(OC)c(CC2=C(C)C(=O)C3C=CC=CC3C2=O)c1 (stereo not shown) [P_TM60, 2-(2,5-Dimethoxy-benzyl)-3-methyl-4a,8a-dihydro-[1,4]naphthoquinone]	IC50 [2]: < 100 nM
103 to 104 °C	CC1=C(Cc2ccccc2)C(=O)C2C=CC=CC2C1=O (stereo not shown) [P_TM62, 2-Methyl-3-benzyl-4a,8a-dihydro-[1,4]naphthoquinone]	antimalarial activity against Dd2 ([2]; compared with substituted benzyl derivatives): less active
108 to 109 °C	CC1=C(Cc2cccc(Br)c2)C(=O)C2C=CC=CC2C1=O (stereo not shown) [P_TM99, 2-Methyl-3-(3-bromo-benzyl)-4a,8a-dihydro-[1,4]naphthoquinone]	–
64 to 65 °C	CC1=C(Cc2ccc(C(C)C)cc2)C(=O)C2C=CC=CC2C1=O (stereo not shown) [P_TM100, 2-Methyl-3-(4-isopropyl-benzyl)-4a,8a-dihydro-[1,4]naphthoquinone]	–
152 to 153 °C	CC1=C(Cc2ccc(N)cc2)C(=O)C2C=CC=CC2C1=O (stereo not shown) [P_TM103, 2-Methyl-3-(4-amino-benzyl)-4a,8a-dihydro-[1,4]naphthoquinone]	–
